The record followed here is patent publication US7432256B2, “Substitued imidazo [1,5-A][1,2,4]triazolo[1,5-D][1,4]benzodiazepine derivatives” (Hoffman-La Roche Inc., priority 2004, dated 2008).

SMILES strings stand for the structures. Counter-ions that a name gives are not always drawn. Like-named read-outs stand apart in the source and are kept apart here.

Experiment [1] deals with T1, GABA A receptor a1b3g2 (hα1) (Homo sapiens, UniProt P14867+P18507).
T1 construct: expressed in transfected cells; host or cells: HEK293 (transient transfection), membranes
The experiment is described as follows: [3H]flumazenil competition binding, GABA A a1b3g2 receptors in HEK293 cells. On the procedure:
(§1) Membrane Preparation and Binding Assay
(§2) The affinity of compounds at GABA A receptor subtypes was measured by competition for [3H]flumazenil (85 Ci/mmol; Roche) binding to HEK293 cells expressing rat (stably transfected) or human (transiently transfected) receptors of composition a1b3g2, a2b3g2, a3b3g2 and a5b3g2.
(§3) Cell pellets were suspended in Krebs-tris buffer (4.8 mM KCl, 1.2 mM CaCl2, 1.2 mM MgCl2, 120 mM NaCl, 15 mM Tris; pH 7.5; binding assay buffer), homogenized by polytron for ca. 20 sec on ice and centrifuged for 60 min at 4° C. (50000 g; Sorvall, rotor: SM24=20000 rpm). The cell pellets were resuspended in Krebs-tris buffer and homogenized by polytron for ca. 15 sec on ice. Protein was measured (Bradford method, Bio-Rad) and aliquots of 1 mL were prepared and stored at −80° C.
(§4) Assays were incubated to equilibrium for 1 hour at 4° C. and harvested onto GF/C uni-filters (Packard) by filtration using a Packard harvester and washing with ice-cold wash buffer (50 mM Tris; pH 7.5). After drying, filter-retained radioactivity was detected by liquid scintillation counting. Ki values were calculated using Excel-Fit (Microsoft) and are the means of two determinations.
(§5) The major important difference is change from SF9 to HEK293 cells (which are human transiently transfected).

The target in experiment [2] is T2, GABA A receptor a5b3g2 (hα5) (Homo sapiens, UniProt P18507+P31644).
T2 construct: expressed in transfected cells; host or cells: HEK293 (transient transfection), membranes
As to the kind of experiment: [3H]flumazenil competition binding, GABA A a5b3g2 receptors in HEK293 cells. On the procedure:
as §1, §2, §3, §4, §5

For experiment [3], the target named is T3, GABA A receptor a3b3g2 (hα3) (Homo sapiens, UniProt P18507+P34903).
T3 construct: expressed in transfected cells; host or cells: HEK293 (transient transfection), membranes
The experiment is described as follows: [3H]flumazenil competition binding, GABA A a3b3g2 receptors in HEK293 cells. The method, then: as §1, §2, §3
(§6) Radioligand binding assays were carried out in a volume of […] (96-well plates) which contained […] of cell memebranes, [3H]flumazenil at a concentration of 1 nM for a1, a2, a3 subunits and 0.5 nM for a5 subunits and the test compound in the range of 10-10-3×10^-6 M. Nonspecific binding was defined by 10^-5 M diazepam and typically represented less than 5% of the total binding. Assays were incubated to equilibrium for 1 hour at 4° C. and harvested onto GF/C uni-filters (Packard) by filtration using a Packard harvester and washing with ice-cold wash buffer (50 mM Tris; pH 7.5). After drying, filter-retained radioactivity was detected by liquid scintillation counting. Ki values were calculated using Excel-Fit (Microsoft) and are the means of two determinations.
as §5

In experiment [4] the target is T4, GABA A receptor a2b3g2 (hα2) (Homo sapiens, UniProt P18507+P47869).
T4 construct: expressed in transfected cells; host or cells: HEK293 (transient transfection), membranes
As to the kind of experiment: [3H]flumazenil competition binding, GABA A a2b3g2 receptors in HEK293 cells. On the procedure: as §1, §2, §3, §6, §5

By Ki is commonly meant the dissociation constant of the complex between target and ligand, obtained from inhibition or displacement. With `Cc1ncn2c1Cn1ncnc1-c1cc(I)ccc1-2` [Example 53, 3-Iodo-10-methyl-9H-imidazo[1,5-a][1,2,4]triazolo[1,5-d][1,4]benzodiazepine hydrochloride (1:1)], the Ki in experiment [1] ([3H]flumazenil 1 nM, HEK293 membranes, human transiently transfected, mean of two determinations, read-out: Ki[nM] hα1) was 184 nM; in experiment [2], 4.3 nM; in experiment [3] ([3H]flumazenil 1 nM, HEK293 membranes, human transiently transfected, mean of two determinations, read-out: Ki[nM] hα3), 126 nM; in experiment [4] ([3H]flumazenil 1 nM, HEK293 membranes, human transiently transfected, mean of two determinations, read-out: Ki[nM] hα2) it was 261 nM.
On to `Cc1ncn2c1Cn1ncnc1-c1c(F)cccc1-2` [Example 57, 4-Fluoro-10-methyl-9H-imidazo[1,5-a][1,2,4]triazolo[1,5-d][1,4]benzodiazepine], for which the Ki turned out to be 4.7 nM in experiment [1]; 1 nM in experiment [2] ([3H]flumazenil 0.5 nM, HEK293 membranes, human transiently transfected, mean of two determinations, read-out: Ki[nM] hα5); 6.3 nM in experiment [3]; 12.8 nM in experiment [4].
